Results as given in PMC5218480 (PLoS ONE, 2017).

Tested on: MV-4-11 cells
Assay: Gene expression microarray analysis (Affymetrix PrimeView) and GSEA
Format: cell-based, human
Set-up: RFU PODN (11730768_x_at) / Fold change /veh PODN (11730768_x_at) / RFU LINC00158 (11744669_a_at) / Fold change /veh LINC00158 (11744669_a_at) / RFU DUSP10 (11751237_a_at) / Fold change /veh DUSP10 (11751237_a_at) / RFU ID3 (11757404_x_at) / Fold change /veh ID3 (11757404_x_at) / RFU PLEKHG5 (11737974_s_at) / Fold change /veh PLEKHG5 (11737974_s_at) / RFU LRRC4B (11730491_at) / Fold change /veh LRRC4B (11730491_at) / RFU GIMAP4 (11747438_a_at) / Fold change /veh GIMAP4 (11747438_a_at) / RFU KRT8 (11758183_x_at) / Fold change /veh KRT8 (11758183_x_at) / RFU CNN1 (11734310_a_at) / Fold change /veh CNN1 (11734310_a_at) / RFU VPS37D (11726825_at) / Fold change /veh VPS37D (11726825_at) / RFU C10orf10 (11716522_x_at) / Fold change /veh C10orf10 (11716522_x_at) / RFU KIR2DL2 /// KIR2DL4 /// KIR2DL5A /// KIR2DL5B /// KIR2DS1 /// KIR2DS2 /// KIR2DS3 /// KIR2DS4 /// KIR3DL3 /// KIR3DL3 /// KIR3DS1 (11738374_at) / Fold change /veh KIR2DL2 /// KIR2DL4 /// KIR2DL5A /// KIR2DL5B /// KIR2DS1 /// KIR2DS2 /// KIR2DS3 /// KIR2DS4 /// KIR3DL3 /// KIR3DL3 /// KIR3DS1 (11738374_at) / RFU C1QL1 (11718748_at) / Fold change /veh C1QL1 (11718748_at) / RFU TMPRSS4 (11747572_a_at) / Fold change /veh TMPRSS4 (11747572_a_at) / RFU HAMP (11756126_x_at) / Fold change /veh HAMP (11756126_x_at) / RFU RNFT2 (11725882_a_at) / Fold change /veh RNFT2 (11725882_a_at) / RFU NR4A2 (11747474_a_at) / Fold change /veh NR4A2 (11747474_a_at) / RFU ABCC12 (11746883_a_at) / Fold change /veh ABCC12 (11746883_a_at) / RFU TMEM136 (11760407_x_at) / Fold change /veh TMEM136 (11760407_x_at) / RFU CLDN22 /// WWC2 (11732394_at) / Fold change /veh CLDN22 /// WWC2 (11732394_at) / RFU HLA-DPB1 (11760878_x_at) / Fold change /veh HLA-DPB1 (11760878_x_at) / RFU SPINT1 (11716480_a_at) / Fold change /veh SPINT1 (11716480_a_at) / RFU GAP43 (11754022_s_at) / Fold change /veh GAP43 (11754022_s_at) / RFU A4GNT (11735810_at) / Fold change /veh A4GNT (11735810_at) / RFU PRB3 (11715151_x_at) / Fold change /veh PRB3 (11715151_x_at) / RFU TUBB4B (11761932_at) / Fold change /veh TUBB4B (11761932_at) / RFU CAPN14 (11732068_a_at) / Fold change /veh CAPN14 (11732068_a_at) / RFU TMCC2 (11721928_a_at) / Fold change /veh TMCC2 (11721928_a_at) / RFU IRGQ (11745062_a_at) / Fold change /veh IRGQ (11745062_a_at) / RFU FAM174B (11720279_a_at) / Fold change /veh FAM174B (11720279_a_at) / RFU TMPRSS4 (11748680_a_at) / Fold change /veh TMPRSS4 (11748680_a_at) / RFU FAM212B (11763350_a_at) / Fold change /veh FAM212B (11763350_a_at) / RFU PLEKHG5 (11743358_a_at) / Fold change /veh PLEKHG5 (11743358_a_at) / RFU ZSCAN30 (11745921_a_at) / Fold change /veh ZSCAN30 (11745921_a_at) / RFU CMKLR1 (11741424_a_at) / Fold change /veh CMKLR1 (11741424_a_at) / RFU LOC101060620 /// MAPK8IP1 (11723275_at) / Fold change /veh LOC101060620 /// MAPK8IP1 (11723275_at) / RFU SPTSSB (11747773_x_at) / Fold change /veh SPTSSB (11747773_x_at) / RFU PRSS12 (11739890_at) / Fold change /veh PRSS12 (11739890_at) / RFU BIN1 (11741810_x_at) / Fold change /veh BIN1 (11741810_x_at) / RFU WNT11 (11732464_a_at) / Fold change /veh WNT11 (11732464_a_at) / RFU C10orf10 (11716521_a_at) / Fold change /veh C10orf10 (11716521_a_at) / RFU C5orf56 (11738089_at) / Fold change /veh C5orf56 (11738089_at) / RFU CYB561 (11721691_x_at) / Fold change /veh CYB561 (11721691_x_at) / RFU ANKRD19P (11752326_a_at) / Fold change /veh ANKRD19P (11752326_a_at) / RFU OR2T12 /// OR2T33 /// OR2T8 (11738714_s_at) / Fold change /veh OR2T12 /// OR2T33 /// OR2T8 (11738714_s_at) / RFU VCAN (11748164_a_at) / Fold change /veh VCAN (11748164_a_at) / RFU JSRP1 (11732532_at) / Fold change /veh JSRP1 (11732532_at) / RFU KRTAP10-11 (11738290_x_at) / Fold change /veh KRTAP10-11 (11738290_x_at) / RFU MYO3A (11730013_a_at) / Fold change /veh MYO3A (11730013_a_at) / RFU EBF3 (11725865_a_at) / Fold change /veh EBF3 (11725865_a_at) / RFU CAMK2N1 (11719241_x_at) / Fold change /veh CAMK2N1 (11719241_x_at) / RFU C5orf56 (11738088_a_at) / Fold change /veh C5orf56 (11738088_a_at) / RFU OLFML3 (11715873_a_at) / Fold change /veh OLFML3 (11715873_a_at) / RFU LOC100653217 /// NTM (11731650_a_at) / Fold change /veh LOC100653217 /// NTM (11731650_a_at) / RFU MAPK11 (11762145_a_at) / Fold change /veh MAPK11 (11762145_a_at) / RFU FIZ1 (11724087_x_at) / Fold change /veh FIZ1 (11724087_x_at) / RFU OASL (11726364_x_at) / Fold change /veh OASL (11726364_x_at) / RFU SOX15 (11748057_x_at) / Fold change /veh SOX15 (11748057_x_at) / RFU CD79A (11719716_a_at) / Fold change /veh CD79A (11719716_a_at) / RFU HIST1H1D (11736915_at) / Fold change /veh HIST1H1D (11736915_at) / RFU CASKIN2 (11723855_a_at) / Fold change /veh CASKIN2 (11723855_a_at) / RFU LOC730098 (11760151_x_at) / Fold change /veh LOC730098 (11760151_x_at) / RFU OR4N2 (11742367_at) / Fold change /veh OR4N2 (11742367_at) / RFU PRRT2 (11749266_a_at) / Fold change /veh PRRT2 (11749266_a_at) / RFU SNX32 (11753110_a_at) / Fold change /veh SNX32 (11753110_a_at) / RFU CDHR5 (11726645_a_at) / Fold change /veh CDHR5 (11726645_a_at) / RFU RCAN1 (11760418_a_at) / Fold change /veh RCAN1 (11760418_a_at) / RFU FAM167A (11723789_a_at) / Fold change /veh FAM167A (11723789_a_at) / RFU FAM26E (11764081_at) / Fold change /veh FAM26E (11764081_at) / RFU ISYNA1 (11749810_s_at) / Fold change /veh ISYNA1 (11749810_s_at) / RFU ACY1 (11761880_at) / Fold change /veh ACY1 (11761880_at) / RFU 11764098_at / Fold change /veh 11764098_at / RFU SAMD14 (11745864_x_at) / Fold change /veh SAMD14 (11745864_x_at) / RFU NPB (11741838_a_at) / Fold change /veh NPB (11741838_a_at) / RFU TMPRSS6 (11731388_a_at) / Fold change /veh TMPRSS6 (11731388_a_at) / RFU KRTAP10-2 (11738614_at) / Fold change /veh KRTAP10-2 (11738614_at) / RFU ARHGAP8 /// PRR5-ARHGAP8 (11727945_x_at) / Fold change /veh ARHGAP8 /// PRR5-ARHGAP8 (11727945_x_at) / RFU KRTAP5-7 /// NADSYN1 (11734609_at) / Fold change /veh KRTAP5-7 /// NADSYN1 (11734609_at) / RFU RASL12 (11751679_a_at) / Fold change /veh RASL12 (11751679_a_at) / RFU CDKN2B (11736163_a_at) / Fold change /veh CDKN2B (11736163_a_at) / RFU PRF1 (11729649_at) / Fold change /veh PRF1 (11729649_at) / RFU, ZNF638 /// ZNF638-IT1 / Fold change vs veh, ZNF638 /// ZNF638-IT1 / RFU, PANK3 / Fold change vs veh, PANK3 / RFU, SH3YL1 / Fold change vs veh, SH3YL1 / RFU, ZEB2 / Fold change vs veh, ZEB2 / RFU, NRIP1 / Fold change vs veh, NRIP1 / RFU, PTTG1IP / Fold change vs veh, PTTG1IP / RFU, CAPN2 / Fold change vs veh, CAPN2 / RFU, MED14 / Fold change vs veh, MED14 / RFU, SNORA58 / Fold change vs veh, SNORA58 / RFU, C1orf63 / Fold change vs veh, C1orf63 / RFU, LRRFIP1 / Fold change vs veh, LRRFIP1 / RFU, NDUFAF7 / Fold change vs veh, NDUFAF7 / RFU, SLC12A2 / Fold change vs veh, SLC12A2 / RFU, IBTK / Fold change vs veh, IBTK / RFU, ESF1 / Fold change vs veh, ESF1 / Fold change vs veh, TMEM50B / RFU, TAOK1 / Fold change vs veh, TAOK1 / RFU, ACBD3 / Fold change vs veh, ACBD3 / RFU, TMA16 / Fold change vs veh, TMA16 / RFU, RWDD3 / Fold change vs veh, RWDD3 / RFU, BCAT1 / Fold change vs veh, BCAT1 / RFU, EDEM3 / Fold change vs veh, EDEM3 / RFU, TMEM33 / Fold change vs veh, TMEM33 / RFU, WDR75 / Fold change vs veh, WDR75 / RFU, AHCTF1 / Fold change vs veh, AHCTF1 / RFU, TFRC / Fold change vs veh, TFRC / RFU, ZDHHC17 / Fold change vs veh, ZDHHC17 / RFU, NOM1 / Fold change vs veh, NOM1 / RFU, ARL8B / Fold change vs veh, ARL8B / RFU, ZBTB11 / Fold change vs veh, ZBTB11 / RFU, TAMM41 / Fold change vs veh, TAMM41 / RFU, KIAA1704 /// LOC100996395 / Fold change vs veh, KIAA1704 /// LOC100996395 / RFU, ING1 / Fold change vs veh, ING1 / RFU, TRMT61B / Fold change vs veh, TRMT61B / RFU, FUBP3 / Fold change vs veh, FUBP3 / RFU, TP53 / Fold change vs veh, TP53 / RFU, TNKS2 / Fold change vs veh, TNKS2 / RFU, ZFP14 / Fold change vs veh, ZFP14 / RFU, ACTR2 / Fold change vs veh, ACTR2 / RFU, PPP3R1 / Fold change vs veh, PPP3R1 / RFU, PIK3R1 / Fold change vs veh, PIK3R1 / RFU, HNRNPA1 / Fold change vs veh, HNRNPA1 / RFU, RNF170 / Fold change vs veh, RNF170 / RFU, ZNF28 / Fold change vs veh, ZNF28 / RFU, RNGTT / Fold change vs veh, RNGTT / RFU, OGT / Fold change vs veh, OGT / RFU, BRD1 / Fold change vs veh, BRD1 / RFU, MARS / Fold change vs veh, MARS / RFU, ZNF655 / Fold change vs veh, ZNF655 / RFU, FAHD1 / Fold change vs veh, FAHD1 / RFU, BDP1 / Fold change vs veh, BDP1 / RFU, LRRCC1 / Fold change vs veh, LRRCC1 / RFU, ARID1A / Fold change vs veh, ARID1A / RFU, ZNF146 / Fold change vs veh, ZNF146 / RFU, ZNF330 / Fold change vs veh, ZNF330 / RFU, GPN3 / Fold change vs veh, GPN3 / RFU, C9orf123 / Fold change vs veh, C9orf123 / RFU, N4BP2L2 / Fold change vs veh, N4BP2L2 / RFU, ARFIP1 / Fold change vs veh, ARFIP1 / RFU, FAM179B / Fold change vs veh, FAM179B / RFU, BCL10 / Fold change vs veh, BCL10 / RFU, UHRF1BP1L / Fold change vs veh, UHRF1BP1L / RFU, BET1 / Fold change vs veh, BET1 / RFU, CNOT2 / Fold change vs veh, CNOT2 / RFU, ZNF268 / Fold change vs veh, ZNF268 / Fold change vs veh, ZNF507 / RFU, DGCR2 / Fold change vs veh, DGCR2 / RFU, WDSUB1 / Fold change vs veh, WDSUB1 / Fold change vs veh, HSP90B1 /// MIR3652 / RFU, ADSS / Fold change vs veh, ADSS / RFU, GK / Fold change vs veh, GK / RFU, ZNF148 / Fold change vs veh, ZNF148 / RFU, TAF9 / Fold change vs veh, TAF9 / RFU, SLC1A5 / Fold change vs veh, SLC1A5 / RFU, SLMO2 / Fold change vs veh, SLMO2 / RFU, ABCC4 / Fold change vs veh, ABCC4 / RFU, LOC101060439 /// RAP1B / Fold change vs veh, LOC101060439 /// RAP1B / RFU, RFX7 / Fold change vs veh, RFX7 / RFU, GTPBP10 / Fold change vs veh, GTPBP10 / RFU, CNEP1R1 / Fold change vs veh, CNEP1R1 / RFU, BIVM-ERCC5 /// ERCC5 / Fold change vs veh, BIVM-ERCC5 /// ERCC5 / RFU, ILF3 / Fold change vs veh, ILF3 / RFU 11762660_at / Fold change /veh 11762660_at / RFU VCAN (11757783_s_at) / Fold change /veh VCAN (11757783_s_at) / RFU DDX43 (11728927_at) / Fold change /veh DDX43 (11728927_at) / RFU KRT8 (11758188_x_at) / Fold change /veh KRT8 (11758188_x_at) / RFU NKD1 (11759106_at) / Fold change /veh NKD1 (11759106_at) / RFU SRD5A1 (11742802_a_at) / Fold change /veh SRD5A1 (11742802_a_at) / RFU TPSAB1 /// TPSB2 (11721975_s_at) / Fold change /veh TPSAB1 /// TPSB2 (11721975_s_at) / RFU GSTM3 (11746129_a_at) / Fold change /veh GSTM3 (11746129_a_at) / RFU IL23R (11737362_x_at) / Fold change /veh IL23R (11737362_x_at) / RFU TMEM51 (11727254_a_at) / Fold change /veh TMEM51 (11727254_a_at) / RFU PIWIL2 (11732686_x_at) / Fold change /veh PIWIL2 (11732686_x_at) / RFU ORM1 (11744905_x_at) / Fold change /veh ORM1 (11744905_x_at) / RFU CCDC152 (11743942_at) / Fold change /veh CCDC152 (11743942_at) / RFU ECM1 (11717891_a_at) / Fold change /veh ECM1 (11717891_a_at) / RFU IL23R (11748794_a_at) / Fold change /veh IL23R (11748794_a_at) / RFU TNFAIP8L3 (11732012_x_at) / Fold change /veh TNFAIP8L3 (11732012_x_at) / RFU MBOAT4 (11741988_at) / Fold change /veh MBOAT4 (11741988_at) / RFU 11764193_at / Fold change /veh 11764193_at / RFU TMEM53 (11763286_at) / Fold change /veh TMEM53 (11763286_at) / RFU MAGEB2 (11727129_at) / Fold change /veh MAGEB2 (11727129_at) / RFU TMEM200A (11744735_a_at) / Fold change /veh TMEM200A (11744735_a_at) / RFU CCDC152 (11751479_a_at) / Fold change /veh CCDC152 (11751479_a_at) / RFU FAM211A (11726209_a_at) / Fold change /veh FAM211A (11726209_a_at) / RFU RGS16 (11746705_a_at) / Fold change /veh RGS16 (11746705_a_at) / RFU VCAN (11755009_s_at) / Fold change /veh VCAN (11755009_s_at) / RFU RHOB (11743442_s_at) / Fold change /veh RHOB (11743442_s_at) / RFU RGS16 (11720943_a_at) / Fold change /veh RGS16 (11720943_a_at) / RFU RGS16 (11720944_at) / Fold change /veh RGS16 (11720944_at) / RFU, VPS4B / Fold change vs veh, VPS4B / RFU, CREB1 / Fold change vs veh, CREB1 / RFU, DNAJC13 / Fold change vs veh, DNAJC13 / RFU, GNAQ / Fold change vs veh, GNAQ / RFU, CDK5R1 / Fold change vs veh, CDK5R1 / RFU, ZRANB3 / Fold change vs veh, ZRANB3 / RFU, CUL4A / Fold change vs veh, CUL4A / RFU, CCNY / Fold change vs veh, CCNY / RFU, UFL1 / Fold change vs veh, UFL1 / RFU, COG3 / Fold change vs veh, COG3 / RFU, DIAPH2 / Fold change vs veh, DIAPH2 / RFU, SKA2 / Fold change vs veh, SKA2 / RFU, AFF3 / Fold change vs veh, AFF3 / RFU, LMF1 / Fold change vs veh, LMF1 / RFU, IPO11 / Fold change vs veh, IPO11 / RFU, DFFB / Fold change vs veh, DFFB / RFU, FOXP1 / Fold change vs veh, FOXP1 / RFU, CARD8 / Fold change vs veh, CARD8 / RFU, STRN3 / Fold change vs veh, STRN3 / RFU, ADK / Fold change vs veh, ADK / RFU, RASSF2 / Fold change vs veh, RASSF2 / RFU, WIPF1 / Fold change vs veh, WIPF1 / RFU, LARP1B / Fold change vs veh, LARP1B / RFU, RASA1 / Fold change vs veh, RASA1 / RFU, RB1 / Fold change vs veh, RB1 / RFU, PPFIA1 / Fold change vs veh, PPFIA1 / RFU, MAT2A / Fold change vs veh, MAT2A / RFU, CCT5 / Fold change vs veh, CCT5 / RFU, WDR92 / Fold change vs veh, WDR92 / RFU, CUX1 / Fold change vs veh, CUX1 / RFU, TTC7A / Fold change vs veh, TTC7A / RFU, TMEM135 / Fold change vs veh, TMEM135 / RFU, DEPTOR / Fold change vs veh, DEPTOR / RFU, CPM / Fold change vs veh, CPM / RFU, DNAJB6 / Fold change vs veh, DNAJB6 / RFU, CACNA2D3 / Fold change vs veh, CACNA2D3 / RFU, DTX4 / Fold change vs veh, DTX4 / RFU, TFCP2 / Fold change vs veh, TFCP2 / RFU, GMCL1 /// GMCL1P1 / Fold change vs veh, GMCL1 /// GMCL1P1 / RFU, AEBP2 / Fold change vs veh, AEBP2 / RFU, SNHG1 /// SNORD22 /// SNORD25 /// SNORD26 /// SNORD27 /// SNORD28 /// SNORD29 /// SNORD31 / Fold change vs veh, SNHG1 /// SNORD22 /// SNORD25 /// SNORD26 /// SNORD27 /// SNORD28 /// SNORD29 /// SNORD31 / Fold change (Aza/veh), C12orf56 (ProbeSet 11735607_a_at) / Fold change (ACY-1035/veh), C12orf56 (ProbeSet 11735607_a_at) / Fold change (Aza/veh), FGFR1OP (ProbeSet 11751329_s_at) / Fold change (ACY-1035/veh), FGFR1OP (ProbeSet 11751329_s_at) / Fold change (Aza/veh), VPS36 (ProbeSet 11739960_a_at) / Fold change (ACY-1035/veh), VPS36 (ProbeSet 11739960_a_at) / RFU SYPL1 (11715823_x_at) / Fold change /veh SYPL1 (11715823_x_at) / RFU IGFBP7 (11715501_s_at) / Fold change /veh IGFBP7 (11715501_s_at) / RFU REEP3 (11722064_at) / Fold change /veh REEP3 (11722064_at) / RFU IGLL1 (11728026_x_at) / Fold change /veh IGLL1 (11728026_x_at): dose or concentration left out as unconfirmed
Settings: ProbeSet 11727545_at; LIST B

Nc1ccc(-c2cccs2)cc1NC(=O)c1ccc2c(c1)cc(C1CC1)n2CCN1CCOCC1 [ACY-1035]
RFU, PANK3: 81.04 RFU
